The test system of series [1] is Mycobacterium marinum. The series is described as follows: Antimycobacterial activity against Mycobacterium marinum CIP 6423. Type of series: functional.
Series [2] can be described thus: Protection index, ratio of MNTD50 for african green monkey Vero cells to MIC for Mycobacterium tuberculosis 103471. Type of series: functional.
Series [3] relates to Mycobacterium tuberculosis. As to the kind of experiment: Antimycobacterial activity against Mycobacterium tuberculosis H37Rv. Type of series: functional.
The subject of series [4] is Mycolicibacterium smegmatis. As to the kind of experiment: Antimycobacterial activity against Mycobacterium smegmatis CIP 103599. Type of series: functional.
Series [5] has as its system Mycobacterium avium. The series is described as follows: Antimycobacterial activity against Mycobacterium avium CIP 103317. Type of series: functional.
The test system of series [6] is Vero. The series is described as follows: Cytotoxicity against african green monkey Vero cells after 5 days. Type of series: cell-based. The following applies: chlorocebus sabaeus, 120 h.
Series [7] deals with Mycobacterium tuberculosis. As to the kind of experiment: Antimycobacterial activity against Mycobacterium tuberculosis 103471. Type of series: functional.
Series [8] concerns Mycobacterium tuberculosis. As to the kind of experiment: Antimycobacterial activity against Mycobacterium tuberculosis H37Rv in […] cells assessed as reduction in number of surviving bacteria at 0.25 ug/mL relative to control. Type of series: functional.
Series [9] concerns Mycobacterium tuberculosis. The series is described as follows: Antimycobacterial activity against Mycobacterium tuberculosis clinical isolates by agar dilution method. Type of series: functional.
For series [10], the system named is Mycobacterium tuberculosis. As to the kind of experiment: Antimycobacterial activity against Mycobacterium tuberculosis H37Rv in […] cells assessed as reduction in number of surviving bacteria at 0.5 ug/mL relative to control. Type of series: functional.
Series [11] has as its system Mycobacterium tuberculosis. The series is described as follows: Antimycobacterial activity against Mycobacterium tuberculosis H37Rv in […] cells assessed as reduction in number of surviving bacteria at 1 ug/mL relative to control. Type of series: functional.

Values after ≈ are worked out from the molar mass of the structure shown.

As to `Cc1c(CN2CCN(C)CC2)cc(-c2ccc(Cl)cc2)n1-c1ccc(Cl)cc1`, the MIC in series [1] came to 100 µg/mL (≈ 241 µM); in series [3] it was 2 µg/mL (≈ 4.83 µM); in series [4], 25 µg/mL (≈ 60.3 µM); in [5] it was 0.5 µg/mL (≈ 1.21 µM); in [7], 1 µg/mL (≈ 2.41 µM). In addition, the Ratio in series [2] is 4. The MNTD50 in [6] worked out at 4 µg/mL.

Regarding `Cc1ccc(-c2cc(CN3CCSCC3)c(C)n2-c2ccc(F)cc2)cc1`, the MIC came out at 8 µg/mL (≈ 21 µM) in series [1]; 0.125 µg/mL (≈ 0.328 µM) in [3]; 16 µg/mL (≈ 42 µM) in series [4]; 8 µg/mL (≈ 21 µM) in series [5]; 0.25 µg/mL (≈ 0.657 µM) in series [7]. For the same molecule, the Ratio in series [2] is recorded as 256. Further, the MNTD50 in [6] was found to be 64 µg/mL.

Consider `CCCc1ccc(-n2c(-c3ccc(F)cc3)cc(CN3CCSCC3)c2C)cc1`, for which the MIC was 16 µg/mL (≈ 39.2 µM) in series [1], 4 µg/mL (≈ 9.79 µM) in series [4], > 16 µg/mL in series [5] and 1 µg/mL (≈ 2.45 µM) in [7]. The Ratio in series [2] stood at 4. The same molecule registered an MNTD50 in [6] of 4 µg/mL.

`CCc1ccc(-n2c(-c3ccc(F)cc3)cc(CN3CCSCC3)c2C)cc1`: the MIC is > 16 µg/mL in series [1], 2 µg/mL (≈ 5.07 µM) in series [4], > 16 µg/mL in [5] and 2 µg/mL (≈ 5.07 µM) in [7]. For the same molecule, the Ratio in series [2] is recorded as 1. This molecule also came in with an MNTD50 in series [6] of 2 µg/mL.

`Cc1c(CN2CCSCC2)cc(-c2ccc(Cl)cc2)n1-c1ccc(C(C)C)cc1`: the Activity is 47.37% in series [8], 84.21% in series [10] and 98.74% in series [11]. Besides, the MIC in [1] is 16 µg/mL (≈ 37.6 µM); in series [9] it was 0.25 µg/mL (≈ 0.588 µM); in [3] it was 0.25 µg/mL (≈ 0.588 µM); in series [4] it was > 16 µg/mL; in [5] it was 16 µg/mL (≈ 37.6 µM); in series [7], 0.25 µg/mL (≈ 0.588 µM). Besides, in series [9], the MIC50 stood at 0.25 µg/mL (≈ 0.588 µM). Also, the MIC90 in series [9] turned out to be 0.5 µg/mL (≈ 1.18 µM). Besides, in [2], the Ratio stood at 128. The same molecule came in with an MNTD50 in [6] of 32 µg/mL.

Take `CCc1ccc(-n2c(-c3ccc(Cl)cc3)cc(CN3CCSCC3)c2C)cc1`: the MIC in series [1] was 4 µg/mL (≈ 9.73 µM); in series [3], 0.5 µg/mL (≈ 1.22 µM); in series [4], 8 µg/mL (≈ 19.5 µM); in series [5] it was 16 µg/mL (≈ 38.9 µM); in [7], 0.5 µg/mL (≈ 1.22 µM). For the same molecule, the Ratio in series [2] is on record as 32. The MNTD50 in series [6] came to 16 µg/mL.

Regarding `CCCc1ccc(-c2cc(CN3CCSCC3)c(C)n2-c2ccc(F)cc2)cc1`, the MIC in series [1] is > 16 µg/mL; in series [4] it was > 16 µg/mL; in series [5] it was > 16 µg/mL; in [7], 2 µg/mL (≈ 4.89 µM). Besides, the Ratio in series [2] came out at 2. In series [6], this molecule had an MNTD50 of 4 µg/mL.

For the molecule `Cc1c(CN2CCSCC2)cc(-c2ccc(C(C)C)cc2)n1-c1ccc(F)cc1`, the MIC in [1] is 8 µg/mL (≈ 19.6 µM); in [3] it was 0.25 µg/mL (≈ 0.612 µM); in [4] it was > 16 µg/mL; in series [5] it was 4 µg/mL (≈ 9.79 µM); in [7] it was 0.25 µg/mL (≈ 0.612 µM). In series [9], this molecule gave an MIC50 of 0.5 µg/mL (≈ 1.22 µM). Also, the MIC90 in [9] came out at 0.5 µg/mL (≈ 1.22 µM). Moreover, the Ratio in series [2] came to 128. Also, in series [6], the MNTD50 turned out to be 32 µg/mL.

Turning to `Cc1ccc(-c2cc(CN3CCSCC3)c(C)n2-c2ccc(Cl)cc2)cc1`, the MIC in [1] is > 16 µg/mL; in series [3] it was 0.5 µg/mL (≈ 1.26 µM); in [4], > 16 µg/mL; in series [5], 16 µg/mL (≈ 40.3 µM); in series [7], 0.5 µg/mL (≈ 1.26 µM). Moreover, the Ratio in series [2] came out at 128. The MNTD50 in series [6] came out at 64 µg/mL.

As for `CCc1ccc(-c2cc(CN3CCSCC3)c(C)n2-c2ccc(Cl)cc2)cc1`, the minimal inhibitory concentration (MIC) was 8 µg/mL (≈ 19.5 µM) in series [1]; 0.25 µg/mL (≈ 0.608 µM) in series [3]; 8 µg/mL (≈ 19.5 µM) in series [4]; 16 µg/mL (≈ 38.9 µM) in series [5]; 0.25 µg/mL (≈ 0.608 µM) in series [7]. Moreover, the Ratio in series [2] turned out to be 64. For the same molecule, the MNTD50 in series [6] amounted to 16 µg/mL.

For the molecule `Cc1ccc(-n2c(-c3ccc(Cl)cc3)cc(CN3CCSCC3)c2C)cc1`, the MIC in series [1] is 16 µg/mL (≈ 40.3 µM); in [3], 0.5 µg/mL (≈ 1.26 µM); in [4] it was 16 µg/mL (≈ 40.3 µM); in [5], > 16 µg/mL; in series [7], 0.5 µg/mL (≈ 1.26 µM). In addition, the Ratio in [2] is 32. Moreover, the MNTD50 in series [6] stood at 16 µg/mL.

For the molecule `CCCc1ccc(-n2c(-c3ccc(Cl)cc3)cc(CN3CCSCC3)c2C)cc1`, the figures for the Activity in series [8], in series [10] and in [11] were 21.05%, 85.79% and 98.79%, respectively. For the same molecule, the MIC in series [1] was 16 µg/mL (≈ 37.6 µM); in series [3], 0.25 µg/mL (≈ 0.588 µM); in series [4] it was > 16 µg/mL; in series [5] it was 16 µg/mL (≈ 37.6 µM); in series [7], 0.25 µg/mL (≈ 0.588 µM). For the same molecule, the MIC50 in series [9] was 0.5 µg/mL (≈ 1.18 µM). In series [9], the MIC90 is 1 µg/mL (≈ 2.35 µM). Moreover, the Ratio in [2] came to 128. This molecule came in with an MNTD50 in series [6] of 32 µg/mL.

As to `CCCc1ccc(-c2cc(CN3CCSCC3)c(C)n2-c2ccc(Cl)cc2)cc1`, the MIC in [1] was 4 µg/mL (≈ 9.41 µM); in series [3], 0.125 µg/mL (≈ 0.294 µM); in series [4], > 16 µg/mL; in series [5], 4 µg/mL (≈ 9.41 µM); in series [7], 0.25 µg/mL (≈ 0.588 µM). Further, in series [2], the Ratio turned out to be 64. In [6], this molecule yielded an MNTD50 of 16 µg/mL.

Take `CCc1ccc(-c2cc(CN3CCSCC3)c(C)n2-c2ccc(F)cc2)cc1`: the MIC is > 16 µg/mL in [1], > 16 µg/mL in [4], > 16 µg/mL in series [5] and 1 µg/mL (≈ 2.53 µM) in series [7]. Also, the Ratio in [2] amounted to 16. This molecule came in with an MNTD50 in series [6] of 16 µg/mL.

In the case of `Cc1c(CN2CCSCC2)cc(-c2ccc(F)cc2)n1-c1ccc(C(C)C)cc1`, the MIC in series [1] was > 16 µg/mL; in series [4], 8 µg/mL (≈ 19.6 µM); in [5], > 16 µg/mL; in series [7] it was 16 µg/mL (≈ 39.2 µM). In addition, the Ratio in [2] came out at 0.5. In series [6], this molecule came in with an MNTD50 of 8 µg/mL.

Consider `Cc1c(CN2CCSCC2)cc(-c2ccc(C(C)C)cc2)n1-c1ccc(Cl)cc1`, for which the MIC was 4 µg/mL (≈ 9.41 µM) in series [1]; 0.125 µg/mL (≈ 0.294 µM) in [3]; 8 µg/mL (≈ 18.8 µM) in series [4]; 8 µg/mL (≈ 18.8 µM) in series [5]; 0.125 µg/mL (≈ 0.294 µM) in series [7]. The Ratio in [2] stood at 64. Also, in series [6], the MNTD50 was determined as 8 µg/mL.

`[H]/N=C(/N)N[C@H]1[C@H](O)[C@@H](O)[C@H](O[C@@H]2O[C@@H](C)[C@](O)(C=O)[C@H]2O[C@@H]2O[C@@H](CO)[C@H](O)[C@@H](O)[C@@H]2NC)[C@@H](N/C(N)=N\[H])[C@@H]1O` (stereo in doubt) [STREPTOMYCIN]: the MIC in series [1] stood at 32 µg/mL (≈ 55 µM); in series [3] it was 4 µg/mL (≈ 6.88 µM); in series [4], 8 µg/mL (≈ 13.8 µM); in series [5] it was 8 µg/mL (≈ 13.8 µM); in series [7], 0.5 µg/mL (≈ 0.86 µM). Besides, the Ratio in [2] is listed as >128. In addition, in [6], the MNTD50 is > 64 µg/mL.

Take `NNC(=O)c1ccncc1` [ISONIAZID]: the minimal inhibitory concentration (MIC) is 16 µg/mL (≈ 117 µM) in series [1]; 0.125 µg/mL (≈ 0.911 µM) in series [9]; 0.25 µg/mL (≈ 1.82 µM) in [3]; 64 µg/mL (≈ 467 µM) in series [4]; 32 µg/mL (≈ 233 µM) in [5]; 0.125 µg/mL (≈ 0.911 µM) in [7]. Also, the MIC50 in [9] is 0.125 µg/mL (≈ 0.911 µM). The molecule further yielded an MIC90 in [9] of 0.25 µg/mL (≈ 1.82 µM). Moreover, the Ratio in [2] stood at 128. In series [6], this molecule yielded an MNTD50 of 32 µg/mL.

Regarding `CO[C@H]1/C=C/O[C@@]2(C)Oc3c(C)c(O)c4c(O)c(c(/C=N/N5CCN(C)CC5)c(O)c4c3C2=O)NC(=O)/C(C)=C\C=C\[C@H](C)[C@H](O)[C@@H](C)[C@@H](O)[C@@H](C)[C@H](OC(C)=O)[C@@H]1C` [RIFAMPIN], the Activity in [8] was determined as 95.79%; in series [10], 98.42%; in series [11], 99.79%. Further, the MIC in [1] turned out to be 0.5 µg/mL (≈ 0.608 µM); in series [3], 0.25 µg/mL (≈ 0.304 µM); in series [4] it was 32 µg/mL (≈ 38.9 µM); in series [5] it was 0.25 µg/mL (≈ 0.304 µM); in series [7] it was 0.25 µg/mL (≈ 0.304 µM). The Ratio in series [2] came to 256. The MNTD50 in series [6] came out at 64 µg/mL.

The term MIC denotes the smallest concentration in the dilution series that meets the test's criterion for growth inhibition. For orientation: MIC50 means the lowest concentration that inhibits either 50% of growth or 50% of the strains tested, depending on the study. A word on the MIC90: it is an inhibitory concentration at the 90% level, which refers to growth in some studies and to a panel of isolates in others.

These data come from ChEMBL document CHEMBL1150412, “1,5-Diphenylpyrrole derivatives as antimycobacterial agents. Probing the influence on antimycobacterial activity of lipophilic substituents at the phenyl rings” (J Med Chem, 2008).
